Experimental data: patent publication US20100204119A1, “4-AMINO-5-OXO-7,8-DIHYDROPYRIMIDO[5,4-F][1,4]OXAZEPIN-6(5H)-YL PHENYL DERIVATIVES” (Pfizer Inc, priority 2009, published 2010)

What follows are molecules tested against T1, Human full-length diacylglycerol:acylCoA acyltransferase 1 (DGAT-1) (Homo sapiens, UniProt O75907) (assay: In vitro assay for inhibition of DGAT-1 activity (DGAT 1 Reduced Microsome Multidose Assay)). Details: Trial 1 Human IC50, Trial 1: as Trial 4 except microsomes at 25 μg/mL instead of 5 μg/mL; average where n > 1.
T1 sequence (O75907 1-488): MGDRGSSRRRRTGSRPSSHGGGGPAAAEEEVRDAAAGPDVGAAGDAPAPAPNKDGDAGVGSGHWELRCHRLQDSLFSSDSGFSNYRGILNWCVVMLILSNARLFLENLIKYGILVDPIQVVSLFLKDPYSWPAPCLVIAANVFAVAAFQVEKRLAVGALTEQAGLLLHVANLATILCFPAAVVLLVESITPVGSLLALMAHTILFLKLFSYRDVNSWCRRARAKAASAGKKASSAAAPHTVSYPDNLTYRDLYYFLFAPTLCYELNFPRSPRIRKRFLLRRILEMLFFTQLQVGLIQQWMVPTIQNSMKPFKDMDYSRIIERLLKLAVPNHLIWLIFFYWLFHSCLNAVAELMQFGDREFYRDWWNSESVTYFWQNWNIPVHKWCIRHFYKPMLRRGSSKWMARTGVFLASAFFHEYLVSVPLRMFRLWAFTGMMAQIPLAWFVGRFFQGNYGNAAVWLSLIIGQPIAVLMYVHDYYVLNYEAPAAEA
Description: Human full-length diacylglycerol:acylCoA acyltransferase 1 (DGAT-1) was expressed in Sf9 insect cells which are then lysed and a crude membrane fraction (105,000×g pellet) was prepared.
Inhibitors in DMSO were pre-incubated with membranes before initiating the DGAT-1 reaction by the addition of decanoylCoA. […] The inhibitors were present at a range of eight concentrations to generate an apparent IC50 for each compound. […] Specifically, the eight concentrations used were 3 μM, 1 μM, 300 nM, 100 nM, 30 nM, 10 nM, 3 nM and 1 nM.
The reactions were allowed to proceed for 1.5 hours at room temperature and then terminated by the addition of 20 μl of EDTA (40 mM). Reaction mixture is then mixed by trituration with 30 μl of Microscint™-E (Perkin Elmer). […] Four separate trials were conducted. The method of analysis of Trial 1 was the same as Trial 4 (described above) except microsomes were utilized at 25 μg/mL instead of 5 μg/mL. The method of analysis of Trial 2 was the same as Trial 4 (described above) except eleven (11) concentrations of inhibitor were employed instead of eight (8). The method of analysis of Trial 3 was the same as Trial 2 except the compounds were serially diluted in a different laboratory.
Where this DGAT-1 inhibition assay was performed on a compound more than once, an average is provided for that compound.

Question: Which IC50 does the source give for CN(CC1COCCO1)C(=O)C[C@H]1CC[C@H](c2ccc(N3CCOc4ncnc(N)c4C3=O)cc2)CC1 (stereo partly shown) [Example 6AF] here?
Answer: The IC50 was 82.8 nM.

Question: For CN(C(=O)C[C@H]1CC[C@H](c2ccc(N3CCOc4ncnc(N)c4C3=O)cc2)CC1)[C@H]1CCCC[C@@H]1O [Example 6AG], which IC50 is on record?
Answer: The IC50 was 52.8 nM.

Question: Which IC50 does the source give for CCC(C)CN(CCO)C(=O)C[C@H]1CC[C@H](c2ccc(N3CCOc4ncnc(N)c4C3=O)cc2)CC1 (stereo partly shown) [Example 6AH] here?
Answer: Its IC50 is 67 nM.

Question: With CC1CCCN1C(=O)C[C@H]1CC[C@H](c2ccc(N3CCOc4ncnc(N)c4C3=O)cc2)CC1 (stereo partly shown) [Example 6AI] as the molecule, how does the IC50 read?
Answer: Its IC50 is 80.4 nM.

Question: Which IC50 does the source give for CCCN(CCO)C(=O)C[C@H]1CC[C@H](c2ccc(N3CCOc4ncnc(N)c4C3=O)cc2)CC1 [Example 6AJ] here?
Answer: The IC50 was 65.5 nM.

Question: CN(Cc1ccc(F)cc1)C(=O)C[C@H]1CC[C@H](c2ccc(N3CCOc4ncnc(N)c4C3=O)cc2)CC1 [Example 6AK] was tested. Which IC50 did it give?
Answer: Its IC50 is 18.1 nM.

Question: How did the IC50 turn out when Nc1ncnc2c1C(=O)N(c1ccc([C@H]3CC[C@H](CC(=O)N4CCNC(=O)CC4)CC3)cc1)CCO2 [Example 6AL] was run?
Answer: The IC50 was 105 nM.

Question: How did the IC50 turn out when Nc1ncnc2c1C(=O)N(c1ccc([C@H]3CC[C@H](CC(=O)N4CC(F)C4)CC3)cc1)CCO2 [Example 6AM] was run?
Answer: Its IC50 is 139 nM.

Question: How did the IC50 turn out when CC1(CO)CCCN(C(=O)C[C@H]2CC[C@H](c3ccc(N4CCOc5ncnc(N)c5C4=O)cc3)CC2)C1 (stereo partly shown) [Example 6AN] was run?
Answer: The IC50 was 71.3 nM.

Question: How did the IC50 turn out when N#CC1CCCN(C(=O)C[C@H]2CC[C@H](c3ccc(N4CCOc5ncnc(N)c5C4=O)cc3)CC2)C1 (stereo partly shown) [Example 6AO] was run?
Answer: The IC50 was 40 nM.

Question: Which IC50 does the source give for CC1(O)CCN(C(=O)C[C@H]2CC[C@H](c3ccc(N4CCOc5ncnc(N)c5C4=O)cc3)CC2)CC1 [Example 6AP] here?
Answer: Its IC50 is 107 nM.

Question: How did the IC50 turn out when CC(c1cccnc1)N(C)C(=O)C[C@H]1CC[C@H](c2ccc(N3CCOc4ncnc(N)c4C3=O)cc2)CC1 (stereo partly shown) [Example 6AQ] was run?
Answer: The IC50 was 87.5 nM.

Question: For CC1(O)CCN(C(=O)C[C@H]2CC[C@H](c3ccc(N4CCOc5ncnc(N)c5C4=O)cc3)CC2)C1 (stereo partly shown) [Example 6AR], which IC50 is on record?
Answer: The IC50 was 85.3 nM.

Question: CCN(Cc1nccn1C)C(=O)C[C@H]1CC[C@H](c2ccc(N3CCOc4ncnc(N)c4C3=O)cc2)CC1 [Example 6AS] was tested. Which IC50 did it give?
Answer: Its IC50 is 47.4 nM.

Question: For CN(C)C(=O)CN(C)C(=O)C[C@H]1CC[C@H](c2ccc(N3CCOc4ncnc(N)c4C3=O)cc2)CC1 [Example 6AT], which IC50 is on record?
Answer: Its IC50 is 161 nM.

Question: Which IC50 does the source give for CC(c1ccncc1)N(C)C(=O)C[C@H]1CC[C@H](c2ccc(N3CCOc4ncnc(N)c4C3=O)cc2)CC1 (stereo partly shown) [Example 6AU] here?
Answer: Its IC50 is 75.5 nM.

Question: How did the IC50 turn out when Nc1ncnc2c1C(=O)N(c1ccc([C@H]3CC[C@H](CC(=O)N4CCC4)CC3)cc1)CCO2 [Example 6AW] was run?
Answer: The IC50 was 73.2 nM.

Question: How did the IC50 turn out when Nc1ncnc2c1C(=O)N(c1ccc([C@H]3CC[C@H](CC(=O)N4CCNC(=O)C4)CC3)cc1)CCO2 [Example 6AX] was run?
Answer: The IC50 was 123 nM.

Question: With Nc1ncnc2c1C(=O)N(c1ccc([C@H]3CC[C@H](CC(=O)N4CCCCC4CCO)CC3)cc1)CCO2 (stereo partly shown) [Example 6AY] as the molecule, how does the IC50 read?
Answer: The IC50 was 85.3 nM.

Question: How did the IC50 turn out when Cc1cc(CN(C)C(=O)C[C@H]2CC[C@H](c3ccc(N4CCOc5ncnc(N)c5C4=O)cc3)CC2)ccn1 [Example 6AZ] was run?
Answer: Its IC50 is 67 nM.

Question: CO[C@@H]1CCN(C(=O)C[C@H]2CC[C@H](c3ccc(N4CCOc5ncnc(N)c5C4=O)cc3)CC2)C1 [Example 6BA] was tested. Which IC50 did it give?
Answer: Its IC50 is 60.1 nM.

Question: For CC1C(=O)NCCN1C(=O)C[C@H]1CC[C@H](c2ccc(N3CCOc4ncnc(N)c4C3=O)cc2)CC1 (stereo partly shown) [Example 6BB], which IC50 is on record?
Answer: Its IC50 is 147 nM.

Question: How did the IC50 turn out when C[C@@H]1COCCN1C(=O)C[C@H]1CC[C@H](c2ccc(N3CCOc4ncnc(N)c4C3=O)cc2)CC1 [Example 6BD] was run?
Answer: The IC50 was 47.2 nM.

Question: With Nc1ncnc2c1C(=O)N(c1ccc([C@H]3CC[C@H](CCC(=O)N4CCOCC4)CC3)cc1)CCO2 [Example 6BF] as the molecule, how does the IC50 read?
Answer: Its IC50 is 60.1 nM.

Question: For CN(CC1CCOCC1)C(=O)C[C@H]1CC[C@H](c2ccc(N3CCOc4ncnc(N)c4C3=O)cc2)CC1 [Example 6D], which IC50 is on record?
Answer: Its IC50 is 103 nM.

Question: CO[C@H]1CCN(C(=O)C[C@H]2CC[C@H](c3ccc(N4CCOc5ncnc(N)c5C4=O)cc3)CC2)C1 [Example 6E] was tested. Which IC50 did it give?
Answer: The IC50 was 72.1 nM.

Question: How did the IC50 turn out when COC[C@H]1CCN(C(=O)C[C@H]2CC[C@H](c3ccc(N4CCOc5ncnc(N)c5C4=O)cc3)CC2)C1 [Example 6F] was run?
Answer: The IC50 was 84.9 nM.

Same assay, conditions: Trial 4 Human IC50, Trial 4: eight concentrations of inhibitor, microsomes 5 μg/mL; average where n > 1

Question: Which IC50 does the source give for C[C@@H]1CN(c2ccc(C(=O)N(C)C)cc2)C(=O)c2c(N)ncnc2O1 [Example 6BG] here?
Answer: Its IC50 is 1670 nM.
